Experimental data as given in ChEMBL document CHEMBL1909294, “Translating clinical findings into knowledge in drug safety evaluation--drug induced liver injury prediction system (DILIps)” (PLoS Comput Biol, 2011).

Tests used:
Hepatotoxicity [1] = tested on: Hepatotoxicity;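 for HepSE Combined Scores: combined hepatic side effect score as listed in the training data of the Drug Induced Liver Injury Prediction System (DILIps)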;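 for HepSE bilirubinemia: bilirubinemia hepatic side effect score drawn from the DILIps training data, a prediction system for drug-induced liver injury; call rule not given here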;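 for HepSE cholecystitis: Cholecystitis-related hepatic side effect score drawn from the DILIps (drug-induced liver injury prediction) training data set; call rule not given here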; for HepSE hepatic failure: call rule not given here;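 for HepSE hepatomegaly: hepatic side effect score for hepatomegaly, taken from the training set of the DILIps drug-induced liver injury prediction system; call rule not given here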; for HepSE liver disease: call rule not given here;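 for HepSE liver fatty: hepatic side effect score for fatty liver, taken from the DILIps training set for predicting drug-induced liver injury; call rule not given here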
Hepatotoxicity [2] = tested on: Hepatotoxicity; remark: listed apart in the source;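 for HepSE Combined Scores: combined hepatic side effect score as listed in the training data of the Drug Induced Liver Injury Prediction System (DILIps)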;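 for HepSE bilirubinemia: bilirubinemia hepatic side effect score drawn from the DILIps training data, a prediction system for drug-induced liver injury; call rule not given here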;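 for HepSE cholecystitis: Cholecystitis-related hepatic side effect score drawn from the DILIps (drug-induced liver injury prediction) training data set; call rule not given here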; for HepSE hepatic failure: call rule not given here;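 for HepSE hepatomegaly: hepatic side effect score for hepatomegaly, taken from the training set of the DILIps drug-induced liver injury prediction system; call rule not given here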; for HepSE liver disease: call rule not given here;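 for HepSE liver fatty: hepatic side effect score for fatty liver, taken from the DILIps training set for predicting drug-induced liver injury; call rule not given here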
Hepatotoxicity [3] = tested on: Hepatotoxicity; remark: listed apart in the source;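 for HepSE Combined Scores: combined hepatic side effect score as listed in the training data of the Drug Induced Liver Injury Prediction System (DILIps)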;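 for HepSE bilirubinemia: bilirubinemia hepatic side effect score drawn from the DILIps training data, a prediction system for drug-induced liver injury; call rule not given here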;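 for HepSE cholecystitis: Cholecystitis-related hepatic side effect score drawn from the DILIps (drug-induced liver injury prediction) training data set; call rule not given here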; for HepSE hepatic failure: call rule not given here;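 for HepSE hepatomegaly: hepatic side effect score for hepatomegaly, taken from the training set of the DILIps drug-induced liver injury prediction system; call rule not given here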; for HepSE liver disease: call rule not given here;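 for HepSE liver fatty: hepatic side effect score for fatty liver, taken from the DILIps training set for predicting drug-induced liver injury; call rule not given here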
Hepatotoxicity [4] = tested on: Hepatotoxicity; remark: listed apart in the source;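 for HepSE Combined Scores: combined hepatic side effect score as listed in the training data of the Drug Induced Liver Injury Prediction System (DILIps)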;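 for HepSE bilirubinemia: bilirubinemia hepatic side effect score drawn from the DILIps training data, a prediction system for drug-induced liver injury; call rule not given here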;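 for HepSE cholecystitis: Cholecystitis-related hepatic side effect score drawn from the DILIps (drug-induced liver injury prediction) training data set; call rule not given here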; for HepSE hepatic failure: call rule not given here;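 for HepSE hepatomegaly: hepatic side effect score for hepatomegaly, taken from the training set of the DILIps drug-induced liver injury prediction system; call rule not given here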; for HepSE liver disease: call rule not given here;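 for HepSE liver fatty: hepatic side effect score for fatty liver, taken from the DILIps training set for predicting drug-induced liver injury; call rule not given here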
Hepatotoxicity [5] = tested on: Hepatotoxicity; remark: listed apart in the source; for HepSE hepatic failure: call rule not given here; for HepSE liver disease: call rule not given here
Hepatotoxicity [6] = tested on: Hepatotoxicity; remark: listed apart in the source; for HepSE hepatic failure: call rule not given here; for HepSE liver disease: call rule not given here
Hepatotoxicity [7] = tested on: Hepatotoxicity; remark: listed apart in the source
Hepatotoxicity [8] = tested on: Hepatotoxicity; remark: listed apart in the source
Hepatotoxicity [9] = tested on: Hepatotoxicity; remark: listed apart in the source
Hepatotoxicity [10] = tested on: Hepatotoxicity; remark: listed apart in the source
Hepatotoxicity [11] = tested on: Hepatotoxicity; remark: listed apart in the source
Hepatotoxicity [12] = tested on: Hepatotoxicity; remark: listed apart in the source
Hepatotoxicity [13] = tested on: Hepatotoxicity; remark: listed apart in the source
Hepatotoxicity [14] = tested on: Hepatotoxicity; remark: listed apart in the source

O=C(O)O [BICARBONATE]
HepSE_bilirubinemia (Hepatotoxicity [1]; Liver): 0
HepSE_cholecystitis (Hepatotoxicity [2]; Liver): 0
HepSE_liver fatty (Hepatotoxicity [3]; Liver): 0
HepSE_hepatitis (Hepatotoxicity [4]; Liver): 0
HepSE_hepatic failure (Hepatotoxicity [5]; Liver): 0
HepSE_liver disease (Hepatotoxicity [6]; Liver): 0
HepSE_Combined Scores (Hepatotoxicity [7]; Liver): 0
HepSE_hepatomegaly (Hepatotoxicity [8]; Liver): 0
HepSE_elevated liver function tests (Hepatotoxicity [9]; Liver): 0
HepSE_liver function tests abnormal (Hepatotoxicity [10]; Liver): 0
HepSE_hepatic necrosis (Hepatotoxicity [11]; Liver): 0
HepSE_jaundice (Hepatotoxicity [12]; Liver): 0
HepSE_cholelithiasis (Hepatotoxicity [13]; Liver): 0
HepSE_cirrhosis (Hepatotoxicity [14]; Liver): 0

CCNC(=O)CCC/C=C\C[C@@H]1[C@@H](/C=C/[C@@H](O)CCc2ccccc2)[C@H](O)C[C@@H]1O [BIMATOPROST]
HepSE_bilirubinemia (Hepatotoxicity [1]): 0
HepSE_cholecystitis (Hepatotoxicity [2]): 0
HepSE_liver fatty (Hepatotoxicity [3]): 0
HepSE_hepatitis (Hepatotoxicity [4]): 0
HepSE_hepatic failure (Hepatotoxicity [5]): 0
HepSE_liver disease (Hepatotoxicity [6]): 0
HepSE_Combined Scores (Hepatotoxicity [7]): 1
HepSE_hepatomegaly (Hepatotoxicity [8]): 0
HepSE_elevated liver function tests (Hepatotoxicity [9]): 0
HepSE_liver function tests abnormal (Hepatotoxicity [10]): 1
HepSE_hepatic necrosis (Hepatotoxicity [11]): 0
HepSE_jaundice (Hepatotoxicity [12]): 0
HepSE_cholelithiasis (Hepatotoxicity [13]): 0
HepSE_cirrhosis (Hepatotoxicity [14]): 0

OC(CCN1CCCCC1)(c1ccccc1)C1CC2C=CC1C2 (configuration not stated) [BIPERIDEN]
HepSE_bilirubinemia (Hepatotoxicity [1]): 0
HepSE_cholecystitis (Hepatotoxicity [2]): 0
HepSE_liver fatty (Hepatotoxicity [3]): 0
HepSE_hepatitis (Hepatotoxicity [4]): 0
HepSE_hepatic failure (Hepatotoxicity [5]): 0
HepSE_liver disease (Hepatotoxicity [6]): 0
HepSE_Combined Scores (Hepatotoxicity [7]): 0
HepSE_hepatomegaly (Hepatotoxicity [8]): 0
HepSE_elevated liver function tests (Hepatotoxicity [9]): 0
HepSE_liver function tests abnormal (Hepatotoxicity [10]): 0
HepSE_hepatic necrosis (Hepatotoxicity [11]): 0
HepSE_jaundice (Hepatotoxicity [12]): 0
HepSE_cholelithiasis (Hepatotoxicity [13]): 0
HepSE_cirrhosis (Hepatotoxicity [14]): 0

CC(C)NCC(O)COc1ccc(COCCOC(C)C)cc1 (configuration not stated) [BISOPROLOL]
HepSE_bilirubinemia (Hepatotoxicity [1]): 0
HepSE_cholecystitis (Hepatotoxicity [2]): 0
HepSE_liver fatty (Hepatotoxicity [3]): 0
HepSE_hepatitis (Hepatotoxicity [4]): 0
HepSE_hepatic failure (Hepatotoxicity [5]): 0
HepSE_liver disease (Hepatotoxicity [6]): 0
HepSE_Combined Scores (Hepatotoxicity [7]): 0
HepSE_hepatomegaly (Hepatotoxicity [8]): 0
HepSE_elevated liver function tests (Hepatotoxicity [9]): 0
HepSE_liver function tests abnormal (Hepatotoxicity [10]): 0
HepSE_hepatic necrosis (Hepatotoxicity [11]): 0
HepSE_jaundice (Hepatotoxicity [12]): 0
HepSE_cholelithiasis (Hepatotoxicity [13]): 0
HepSE_cirrhosis (Hepatotoxicity [14]): 0

CC(C)C[C@H](NC(=O)[C@H](Cc1ccccc1)NC(=O)c1cnccn1)B(O)O [BORTEZOMIB]
HepSE_bilirubinemia (Hepatotoxicity [1]; Liver): 1
HepSE_cholecystitis (Hepatotoxicity [2]; Liver): 0
HepSE_liver fatty (Hepatotoxicity [3]; Liver): 0
HepSE_hepatitis (Hepatotoxicity [4]; Liver): 1
HepSE_hepatic failure (Hepatotoxicity [5]; Liver): 1
HepSE_liver disease (Hepatotoxicity [6]; Liver): 0
HepSE_Combined Scores (Hepatotoxicity [7]; Liver): 3
HepSE_hepatomegaly (Hepatotoxicity [8]; Liver): 0
HepSE_elevated liver function tests (Hepatotoxicity [9]; Liver): 0
HepSE_liver function tests abnormal (Hepatotoxicity [10]; Liver): 0
HepSE_hepatic necrosis (Hepatotoxicity [11]; Liver): 0
HepSE_jaundice (Hepatotoxicity [12]; Liver): 0
HepSE_cholelithiasis (Hepatotoxicity [13]; Liver): 0
HepSE_cirrhosis (Hepatotoxicity [14]; Liver): 0

COc1ccccc1Oc1c(NS(=O)(=O)c2ccc(C(C)(C)C)cc2)nc(-c2ncccn2)nc1OCCO [BOSENTAN]
HepSE_bilirubinemia (Hepatotoxicity [1]): 0
HepSE_cholecystitis (Hepatotoxicity [2]): 0
HepSE_liver fatty (Hepatotoxicity [3]): 0
HepSE_hepatitis (Hepatotoxicity [4]): 1
HepSE_hepatic failure (Hepatotoxicity [5]): 1
HepSE_liver disease (Hepatotoxicity [6]): 0
HepSE_Combined Scores (Hepatotoxicity [7]): 4
HepSE_hepatomegaly (Hepatotoxicity [8]): 0
HepSE_elevated liver function tests (Hepatotoxicity [9]): 0
HepSE_liver function tests abnormal (Hepatotoxicity [10]): 0
HepSE_hepatic necrosis (Hepatotoxicity [11]): 0
HepSE_jaundice (Hepatotoxicity [12]): 1
HepSE_cholelithiasis (Hepatotoxicity [13]): 0
HepSE_cirrhosis (Hepatotoxicity [14]): 1

CC[N+](C)(C)Cc1ccccc1Br [BRETYLIUM]
HepSE_bilirubinemia (Hepatotoxicity [1]): 0
HepSE_cholecystitis (Hepatotoxicity [2]): 0
HepSE_liver fatty (Hepatotoxicity [3]): 0
HepSE_hepatitis (Hepatotoxicity [4]): 0
HepSE_hepatic failure (Hepatotoxicity [5]): 0
HepSE_liver disease (Hepatotoxicity [6]): 0
HepSE_Combined Scores (Hepatotoxicity [7]): 0
HepSE_hepatomegaly (Hepatotoxicity [8]): 0
HepSE_elevated liver function tests (Hepatotoxicity [9]): 0
HepSE_liver function tests abnormal (Hepatotoxicity [10]): 0
HepSE_hepatic necrosis (Hepatotoxicity [11]): 0
HepSE_jaundice (Hepatotoxicity [12]): 0
HepSE_cholelithiasis (Hepatotoxicity [13]): 0
HepSE_cirrhosis (Hepatotoxicity [14]): 0

Brc1c(NC2=NCCN2)ccc2nccnc12 [BRIMONIDINE]
HepSE_bilirubinemia (Hepatotoxicity [1]; Liver): 0
HepSE_cholecystitis (Hepatotoxicity [2]; Liver): 0
HepSE_liver fatty (Hepatotoxicity [3]; Liver): 0
HepSE_hepatitis (Hepatotoxicity [4]; Liver): 0
HepSE_hepatic failure (Hepatotoxicity [5]; Liver): 0
HepSE_liver disease (Hepatotoxicity [6]; Liver): 0
HepSE_Combined Scores (Hepatotoxicity [7]; Liver): 0
HepSE_hepatomegaly (Hepatotoxicity [8]; Liver): 0
HepSE_elevated liver function tests (Hepatotoxicity [9]; Liver): 0
HepSE_liver function tests abnormal (Hepatotoxicity [10]; Liver): 0
HepSE_hepatic necrosis (Hepatotoxicity [11]; Liver): 0
HepSE_jaundice (Hepatotoxicity [12]; Liver): 0
HepSE_cholelithiasis (Hepatotoxicity [13]; Liver): 0
HepSE_cirrhosis (Hepatotoxicity [14]; Liver): 0

CCN[C@H]1CN(CCCOC)S(=O)(=O)c2sc(S(N)(=O)=O)cc21 [BRINZOLAMIDE]
HepSE_bilirubinemia (Hepatotoxicity [1]): 0
HepSE_cholecystitis (Hepatotoxicity [2]): 0
HepSE_liver fatty (Hepatotoxicity [3]): 0
HepSE_hepatitis (Hepatotoxicity [4]): 0
HepSE_hepatic failure (Hepatotoxicity [5]): 0
HepSE_liver disease (Hepatotoxicity [6]): 0
HepSE_Combined Scores (Hepatotoxicity [7]): 0
HepSE_hepatomegaly (Hepatotoxicity [8]): 0
HepSE_elevated liver function tests (Hepatotoxicity [9]): 0
HepSE_liver function tests abnormal (Hepatotoxicity [10]): 0
HepSE_hepatic necrosis (Hepatotoxicity [11]): 0
HepSE_jaundice (Hepatotoxicity [12]): 0
HepSE_cholelithiasis (Hepatotoxicity [13]): 0
HepSE_cirrhosis (Hepatotoxicity [14]): 0

O=C1CN=C(c2ccccn2)c2cc(Br)ccc2N1 [BROMAZEPAM]
HepSE_bilirubinemia (Hepatotoxicity [1]): 0
HepSE_cholecystitis (Hepatotoxicity [2]): 0
HepSE_liver fatty (Hepatotoxicity [3]): 0
HepSE_hepatitis (Hepatotoxicity [4]): 0
HepSE_hepatic failure (Hepatotoxicity [5]): 0
HepSE_liver disease (Hepatotoxicity [6]): 0
HepSE_Combined Scores (Hepatotoxicity [7]): 0
HepSE_hepatomegaly (Hepatotoxicity [8]): 0
HepSE_elevated liver function tests (Hepatotoxicity [9]): 0
HepSE_liver function tests abnormal (Hepatotoxicity [10]): 0
HepSE_hepatic necrosis (Hepatotoxicity [11]): 0
HepSE_jaundice (Hepatotoxicity [12]): 0
HepSE_cholelithiasis (Hepatotoxicity [13]): 0
HepSE_cirrhosis (Hepatotoxicity [14]): 0

CC(C)C[C@H]1C(=O)N2CCC[C@H]2[C@]2(O)O[C@](NC(=O)[C@@H]3C=C4c5cccc6[nH]c(Br)c(c56)C[C@H]4N(C)C3)(C(C)C)C(=O)N12 [BROMOCRIPTINE]
HepSE_bilirubinemia (Hepatotoxicity [1]): 0
HepSE_cholecystitis (Hepatotoxicity [2]): 0
HepSE_liver fatty (Hepatotoxicity [3]): 0
HepSE_hepatitis (Hepatotoxicity [4]): 0
HepSE_hepatic failure (Hepatotoxicity [5]): 0
HepSE_liver disease (Hepatotoxicity [6]): 0
HepSE_Combined Scores (Hepatotoxicity [7]): 0
HepSE_hepatomegaly (Hepatotoxicity [8]): 0
HepSE_elevated liver function tests (Hepatotoxicity [9]): 0
HepSE_liver function tests abnormal (Hepatotoxicity [10]): 0
HepSE_hepatic necrosis (Hepatotoxicity [11]): 0
HepSE_jaundice (Hepatotoxicity [12]): 0
HepSE_cholelithiasis (Hepatotoxicity [13]): 0
HepSE_cirrhosis (Hepatotoxicity [14]): 0

CCCC1O[C@@H]2C[C@H]3[C@@H]4CCC5=CC(=O)C=C[C@]5(C)[C@H]4[C@@H](O)C[C@]3(C)[C@]2(C(=O)CO)O1 (some centres not stated) [BUDESONIDE]
HepSE_bilirubinemia (Hepatotoxicity [1]): 0
HepSE_cholecystitis (Hepatotoxicity [2]): 0
HepSE_liver fatty (Hepatotoxicity [3]): 0
HepSE_hepatitis (Hepatotoxicity [4]): 0
HepSE_hepatic failure (Hepatotoxicity [5]): 0
HepSE_liver disease (Hepatotoxicity [6]): 0
HepSE_Combined Scores (Hepatotoxicity [7]): 0
HepSE_hepatomegaly (Hepatotoxicity [8]): 0
HepSE_elevated liver function tests (Hepatotoxicity [9]): 0
HepSE_liver function tests abnormal (Hepatotoxicity [10]): 0
HepSE_hepatic necrosis (Hepatotoxicity [11]): 0
HepSE_jaundice (Hepatotoxicity [12]): 0
HepSE_cholelithiasis (Hepatotoxicity [13]): 0
HepSE_cirrhosis (Hepatotoxicity [14]): 0

CCCCNc1cc(C(=O)O)cc(S(N)(=O)=O)c1Oc1ccccc1 [BUMETANIDE]
HepSE_bilirubinemia (Hepatotoxicity [1]): 0
HepSE_cholecystitis (Hepatotoxicity [2]): 0
HepSE_liver fatty (Hepatotoxicity [3]): 0
HepSE_hepatitis (Hepatotoxicity [4]): 0
HepSE_hepatic failure (Hepatotoxicity [5]): 0
HepSE_liver disease (Hepatotoxicity [6]): 1
HepSE_Combined Scores (Hepatotoxicity [7]): 1
HepSE_hepatomegaly (Hepatotoxicity [8]): 0
HepSE_elevated liver function tests (Hepatotoxicity [9]): 0
HepSE_liver function tests abnormal (Hepatotoxicity [10]): 0
HepSE_hepatic necrosis (Hepatotoxicity [11]): 0
HepSE_jaundice (Hepatotoxicity [12]): 0
HepSE_cholelithiasis (Hepatotoxicity [13]): 0
HepSE_cirrhosis (Hepatotoxicity [14]): 0
